In PMC7397174, “4-Arylthieno[2,3-b]pyridine-2-carboxamides Are a New Class of Antiplasmodial Agents” (Molecules, 2020):
Structures can show the parent of a compound that is named as a salt.

How the values were obtained:
[1] = test system: erythrocytic forms of P. falciparum (strain 3D7); assay: Viability screening of antiplasmodial activity (SYBR-gold DNA quantification, 96 h); type: cell-based, Plasmodium falciparum; conditions: for SI (Selectivity index for 3D7 erythrocytic forms versus HEK293 cells): 3D7 versus HEK293 cells; for IC50 / activity at 0.3 µM / activity at 3 µM: Plasmodium falciparum; for IC50: 3D7, strain 3D7, erythrocytic forms; for activity at 0.3 µM / activity at 3 µM: 96 h, strain 3D7, calculated on DMSO controls; for activity at 0.3 µM: read-out: Parasitemia (3D7) at 0.3 µM [%]; for activity at 3 µM: read-out: Parasitemia (3D7) at 3 µM [%]
in vitro = type: cell-based, human; conditions: human, HEK293T Viability at 30 µM [%]
Description: Cytotoxic effects of test compounds on eukaryotic cells were investigated using a HEK293T cell viability assay. First, the cell density of a HEK293T culture was determined. […] The supernatant was then aspirated and fresh culture medium was added to 200 μL into which the test compounds were previously added. All substances were previously dissolved in DMSO. […] The viability of the cells was then examined by adding PrestoBlue® Cell Viability Agent (Invitrogen, Carlsbad, CA, USA). The supernatant was removed, 10% PrestoBlue® was added in preheated PBS and the culture was incubated for 30 min at 37 °C. In cells with an active metabolism, the PrestoBlue dye is reduced, causing it to fluorescence. The fluorescence (λex = 560 nm, λem = 590 nm) was measured in an EnVision Multilable Plate Reader (Perkin Elmer, Waltham, MA, USA; integration time 0.1 sec/well).

rPfGSK-3 = rPfGSK-3 (Plasmodium falciparum, UniProt O77344); assay: KinaseGlo Plus assay for inhibition of PfGSK-3; type: biochemical; conditions: 10 µM; remaining activity, calculated on DMSO controls; Table 3; read-out: rPfGSK-3 Activity at 10 µM [%]
Sequence of rPfGSK-3 (O77344 entry or part of it): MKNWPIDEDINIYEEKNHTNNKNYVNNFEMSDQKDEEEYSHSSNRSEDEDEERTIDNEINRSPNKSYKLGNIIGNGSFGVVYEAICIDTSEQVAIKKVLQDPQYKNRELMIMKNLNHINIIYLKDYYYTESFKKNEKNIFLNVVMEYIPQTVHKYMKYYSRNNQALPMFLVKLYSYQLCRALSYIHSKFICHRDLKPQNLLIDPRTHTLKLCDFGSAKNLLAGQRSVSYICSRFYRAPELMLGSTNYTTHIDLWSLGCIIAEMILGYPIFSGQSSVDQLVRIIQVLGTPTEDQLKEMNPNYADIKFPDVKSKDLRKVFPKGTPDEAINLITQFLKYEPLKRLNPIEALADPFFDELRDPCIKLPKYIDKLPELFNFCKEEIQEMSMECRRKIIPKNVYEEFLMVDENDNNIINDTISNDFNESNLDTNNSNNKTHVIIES

Compound	SI (Selectivity index for 3D7 erythrocytic forms versus HEK293 cells) [1]	IC50 [1]	activity at 0.3 µM [1]	activity at 3 µM [1]	viability at 48 h, 30 µM (in vitro)	remaining activity at 10 µM (rPfGSK-3)
N#Cc1c(N)nc2sc(C(=O)Nc3ccc(Cl)cc3)c(N)c2c1-c1cccc(Cl)c1 [Compound 9a, 3,6-Diamino-4-(3-chlorophenyl)-N-(4-chlorophenyl)-5-cyanothieno[2,3-b]pyridine-2-carboxamide]	>70	410 nM	23.1 ± 10.8%	3.7 ± 3.6%	123 ± 8.4%	80.3 ± 18.2%
N#Cc1c(N)nc2sc(C(=O)Nc3ccc(F)cc3)c(N)c2c1-c1ccc(N2CCCC2)cc1Cl [Compound 9aa, 3,6-Diamino-4-[2-chloro-4-(pyrrolidin-1-yl)phenyl]-5-cyano-N-(4-fluorophenyl)thieno[2,3-b]pyridine-2-carboxamide]			61.8 ± 27.7%	5.3 ± 2.6%	74 ± 8.6%	101 ± 3.7%
CN(C)CCN(C)c1ccc(-c2c(C#N)c(N)nc3sc(C(=O)Nc4ccc(F)cc4)c(N)c23)c(Cl)c1 [Compound 9ab, 3,6-Diamino-4-(2-chloro-4-{[2-(dimethylamino)ethyl](methyl)amino}phenyl)-5-cyano-N-(4-fluorophenyl)thieno[2,3-b]pyridine-2-carboxamide]			16.7 ± 19.5%	1.6 ± 11%	-1.4 ± 13.1%	112 ± 13.9%
CN(CCNC(=O)OC(C)(C)C)c1ccc(-c2c(C#N)c(N)nc3sc(C(=O)Nc4ccc(F)cc4)c(N)c23)c(Cl)c1 [Compound 9ac, tert-Butyl {2-[(3-chloro-4-{3,6-diamino-5-cyano-2-[(4-fluorophenyl)carbamoyl]thieno[2,3-b]pyridin-4-yl}phenyl)(methyl)amino]ethyl}carbamate]			30.1 ± 14.2%	7.5 ± 5.9%	55.8 ± 25.1%	85.7 ± 8.2%
CN(CCNC(=O)OC(C)(C)C)c1ccc(-c2c(C#N)c(N)nc3sc(C(=O)Nc4ccccc4Cl)c(N)c23)c(Cl)c1 [Compound 9ad, tert-Butyl {2-[(3-chloro-4-{3,6-diamino-2-[(2-chlorophenyl)carbamoyl]-5-cyanothieno[2,3-b]pyridin-4-yl}phenyl)(methyl)amino]ethyl}carbamate]			57.7 ± 24.1%	13.3 ± 9.9%	76.3 ± 24.1%	95 ± 10.7%
CN(CCN)c1ccc(-c2c(C#N)c(N)nc3sc(C(=O)Nc4cccc(Cl)c4)c(N)c23)c(Cl)c1 [Compound 9ae, 3,6-Diamino-4-{4-[(2-aminoethyl)(methyl)amino]-2-chlorophenyl}-N-(3-chlorophenyl)-5-cyanothieno-[2,3-b]pyridine-2-carboxamide hydrochloride]			1.7 ± 4.2%	2.7 ± 7.8%	-8.5 ± 7.4%	101 ± 20.2%
CN(C)CCN(C)c1ccc(-c2c(C#N)c(N)nc3sc(C(=O)Nc4cccc(Cl)c4)c(N)c23)c(Cl)c1 [Compound 9af, 3,6-Diamino-4-(2-chloro-4-{[2-(dimethylamino)ethyl](methyl)amino}phenyl)-N-(3-chlorophenyl)-5-cyanothieno[2,3-b]pyridine-2-carboxamide]			5.8 ± 4.7%	4.5 ± 7.4%	-7.4 ± 6.4%	107 ± 11.2%
N#Cc1c(N)nc2sc(C(=O)Nc3ccccc3Cl)c(N)c2c1-c1cccc(F)c1 [Compound 9b, 3,6-Diamino-N-(2-chlorophenyl)-5-cyano-4-(3-fluorophenyl)thieno[2,3-b]pyridine-2-carboxamide]			96 ± 1.9%	46 ± 19.7%	101 ± 19.6%	102 ± 16.5%
N#Cc1c(N)nc2sc(C(=O)Nc3ccccc3Cl)c(N)c2c1-c1cccc(Cl)c1 [Compound 9c, 3,6-Diamino-N-(2-chlorophenyl)-4-(3-chlorophenyl)-5-cyanothieno[2,3-b]pyridine-2-carboxamide]			69.2 ± 26%	40 ± 15.9%	99.3 ± 5.3%	99 ± 14.1%
N#Cc1c(N)nc2sc(C(=O)Nc3ccc(F)cc3)c(N)c2c1-c1cccc(Cl)c1 [Compound 9d, 3,6-Diamino-4-(3-chlorophenyl)-5-cyano-N-(4-fluorophenyl)thieno[2,3-b]pyridine-2-carboxamide]			88.5 ± 17.6%	3.5 ± 3.5%	83 ± 21.6%	69.7 ± 16.6%
Cc1cccc(-c2c(C#N)c(N)nc3sc(C(=O)Nc4ccc(Cl)cc4)c(N)c23)c1 [Compound 9e, 3,6-Diamino-N-(4-chlorophenyl)-5-cyano-4-(3-methylphenyl)thieno[2,3-b]pyridine-2-carboxamide]	>100	273 nM	9.7 ± 6.8%	5.6 ± 5.5%	83.3 ± 20.6%	106 ± 6.5%
Cc1cccc(-c2c(C#N)c(N)nc3sc(C(=O)Nc4ccccc4Cl)c(N)c23)c1 [Compound 9f, 3,6-Diamino-N-(2-chlorophenyl)-5-cyano-4-(3-methylphenyl)thieno[2,3-b]pyridine-2-carboxamide]			80.2 ± 20.3%	51.6 ± 15.7%	93.6 ± 29.9%	90.9 ± 14.2%
Cc1cccc(-c2c(C#N)c(N)nc3sc(C(=O)Nc4ccc(F)cc4)c(N)c23)c1 [Compound 9g, 3,6-Diamino-5-cyano-N-(4-fluorophenyl)-4-(3-methylphenyl)thieno[2,3-b]pyridine-2-carboxamide]			63.8 ± 16.5%	3.1 ± 2.7%	67.8 ± 8.1%	74.8 ± 21.7%
N#Cc1c(N)nc2sc(C(=O)Nc3ccc(Cl)cc3)c(N)c2c1-c1cccc(F)c1 [Compound 9h, 3,6-Diamino-N-(4-chlorophenyl)-5-cyano-4-(3-fluorophenyl)thieno[2,3-b]pyridine-2-carboxamide]			63.2 ± 19.5%	3.9 ± 2.9%	90.7 ± 13.2%	104 ± 13.3%
N#Cc1c(N)nc2sc(C(=O)Nc3ccc(F)cc3)c(N)c2c1-c1cccc(F)c1 [Compound 9i, 3,6-Diamino-5-cyano-4-(3-fluorophenyl)-N-(4-fluorophenyl)thieno[2,3-b]pyridine-2-carboxamide]			65.8 ± 24.6%	6.1 ± 4.9%	< 50%	70.9 ± 19.8%
CCCCCCCNC(=O)c1sc2nc(N)c(C#N)c(-c3cccc(C)c3)c2c1N [Compound 9k, 3,6-Diamino-5-cyano-N-heptyl-4-(3-methylphenyl)thieno[2,3-b]pyridine-2-carboxamide]			72.7 ± 28.2%	84 ± 27%	54.3 ± 19.1%	84.7 ± 10.6%
Cc1cccc(-c2c(C#N)c(N)nc3sc(C(=O)NCCC4CC4)c(N)c23)c1 [Compound 9o, 3,6-Diamino-5-cyano-N-(2-cyclopropylethyl)-4-(3-methylphenyl)thieno[2,3-b]pyridine-2-carboxamide]			62.5 ± 23.5%	40.8 ± 14.3%		60 ± 11.2%
Nc1c(C(=O)Nc2ccc(Cl)cc2)sc2nc3c(c(-c4ccccc4)c12)CCCC3 [Compound 17d, 3-Amino-N-(4-chlorophenyl)-4-phenyl-5,6,7,8-tetrahydrothieno[2,3-b]quinoline-2-carboxamide]			6.2 ± 5.7%	8.4 ± 17.5%		106 ± 10.6%
